Measured values published in PMC9640540, “An LH1–RC photocomplex from an extremophilic phototroph provides insight into origins of two photosynthesis proteins” (Communications Biology, 2022).

Target: T1, reaction center (RC) of the LH1–RC complex (Rhodopila globiformis, UniProt A0A2S6NEG7+A0A2S6NEP5)
T1 construct: gene CCS01_15140; native LH1-RC core complex purified from chromatophores (LDAO, then DDM); closed LH1 ring; with Reaction center protein H chain; Photosynthetic reaction center cytochrome c subunit
T1 sequence (A0A2S6NEG7 1-275): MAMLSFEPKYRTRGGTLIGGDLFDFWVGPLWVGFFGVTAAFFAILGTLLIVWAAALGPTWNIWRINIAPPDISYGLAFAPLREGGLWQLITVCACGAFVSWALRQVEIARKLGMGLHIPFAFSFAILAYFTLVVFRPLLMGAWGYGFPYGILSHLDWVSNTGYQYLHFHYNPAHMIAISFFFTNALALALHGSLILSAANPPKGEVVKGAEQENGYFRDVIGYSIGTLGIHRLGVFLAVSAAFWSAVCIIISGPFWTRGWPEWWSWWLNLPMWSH
T1 sequence (A0A2S6NEP5 1-326): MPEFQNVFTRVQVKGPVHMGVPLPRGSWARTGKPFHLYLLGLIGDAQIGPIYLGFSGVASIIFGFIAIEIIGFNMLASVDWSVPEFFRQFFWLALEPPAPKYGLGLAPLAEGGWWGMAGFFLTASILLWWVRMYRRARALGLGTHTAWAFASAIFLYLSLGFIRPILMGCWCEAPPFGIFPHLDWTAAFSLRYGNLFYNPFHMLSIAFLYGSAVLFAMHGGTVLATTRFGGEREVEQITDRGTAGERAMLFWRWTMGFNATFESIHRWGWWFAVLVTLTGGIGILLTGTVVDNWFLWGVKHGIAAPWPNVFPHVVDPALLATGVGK
T1 sequence (A0A2S6MZS1 1-258 partner): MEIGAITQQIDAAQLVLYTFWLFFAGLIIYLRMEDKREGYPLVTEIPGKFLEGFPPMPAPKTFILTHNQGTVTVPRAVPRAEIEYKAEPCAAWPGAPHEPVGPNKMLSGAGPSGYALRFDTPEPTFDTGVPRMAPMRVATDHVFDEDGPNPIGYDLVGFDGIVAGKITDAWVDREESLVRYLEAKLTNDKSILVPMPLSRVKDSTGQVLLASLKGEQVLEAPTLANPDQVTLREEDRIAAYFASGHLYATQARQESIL
T1 sequence (A0A2S6NEK5 1-344 partner): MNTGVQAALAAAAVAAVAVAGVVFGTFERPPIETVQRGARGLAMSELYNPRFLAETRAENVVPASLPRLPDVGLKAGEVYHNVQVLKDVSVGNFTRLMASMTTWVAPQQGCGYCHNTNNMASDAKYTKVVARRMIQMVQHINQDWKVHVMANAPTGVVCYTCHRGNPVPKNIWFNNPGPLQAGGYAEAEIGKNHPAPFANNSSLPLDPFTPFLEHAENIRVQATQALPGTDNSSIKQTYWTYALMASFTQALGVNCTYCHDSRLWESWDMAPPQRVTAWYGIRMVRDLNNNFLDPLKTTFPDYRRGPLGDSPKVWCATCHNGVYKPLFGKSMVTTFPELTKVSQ
Test: cryo-EM structure, […] Å
Assay type: binding

Compound: CC[C@H]1c2cc3[nH]c4c(c3C)C(=O)[C@H](C(=O)OC)c4c3nc(cc4[nH]c(cc(n2)[C@@H]1C)c(C(C)=O)c4C)[C@@H](C)[C@@H]3CCC(=O)OC/C=C(\C)CCC[C@H](C)CCC[C@H](C)CCCC(C)C [BPhe a]
- cryo-EM structure, 2.24 Å: BPhe a, magenta sticks
